In PubChem BioAssay (NCI):
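Cells were grown in 96-well plates and exposed to each compound for 48 hours at five concentrations; endpoints were interpolated linearly between bracketing concentrations, or set to the highest concentration if not reached. At the GI50, growth is halved. TGI marks complete inhibition of growth.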

Assays:
Assay in all cases: DTP human tumour cell line panel, 48 h
[1] = system: 786-0 renal
[2] = system: A498 renal
[3] = system: A549 NSCLC
[4] = system: ACHN renal
[5] = system: BT-549 breast
[6] = system: CAKI-1 renal
[7] = system: CCRF-CEM leukemia
[8] = system: COLO 205 colon
[9] = system: DU-145 prostate
[10] = system: EKVX NSCLC
[11] = system: HCC-2998 colon
[12] = system: HCT-116 colon
[13] = system: HCT-15 colon
[14] = system: HL-60(TB) leukemia
[15] = system: HOP-62 NSCLC
[16] = system: HOP-92 NSCLC
[17] = system: HS 578T breast
[18] = system: HT29 colon
[19] = system: IGROV1 ovarian
[20] = system: K-562 leukemia
[21] = system: KM12 colon
[22] = system: LOX IMVI melanoma
[23] = system: MALME-3M melanoma
[24] = system: MCF7 breast
[25] = system: MDA-MB-231 breast
[26] = system: MDA-MB-435
[27] = system: MOLT-4 leukemia
[28] = system: NCI-H226 lung
[29] = system: NCI-H23 lung
[30] = system: NCI-H460 lung
[31] = system: NCI-H522 lung
[32] = system: NCI/ADR-RES ovarian
[33] = system: OVCAR-3 ovarian
[34] = system: OVCAR-4 ovarian
[35] = system: OVCAR-5 ovarian
[36] = system: OVCAR-8 ovarian
[37] = system: PC-3 prostate
[38] = system: RPMI-8226 leukemia
[39] = system: RXF 393 renal
[40] = system: SF-268 CNS
[41] = system: SF-295 CNS
[42] = system: SF-539 CNS
[43] = system: SK-MEL-2 melanoma
[44] = system: SK-MEL-28 melanoma
[45] = system: SK-MEL-5 melanoma
[46] = system: SK-OV-3 ovarian
[47] = system: SN12C renal
[48] = system: SNB-19 CNS
[49] = system: SNB-75 CNS
[50] = system: SR leukemia
[51] = system: SW-620 colon
[52] = system: T-47D breast
[53] = system: TK-10 renal
[54] = system: U251 CNS
[55] = system: UACC-257 melanoma
[56] = system: UACC-62 melanoma
[57] = system: UO-31 renal

## C#CCN(C)CCCOc1ccc(NCc2ccc(C(=O)NO)cc2)cc1Cl
[1]
  GI50: 3.18 µM
  TGI: 14.3 µM
[2]
  GI50: 1.11 µM
  TGI: 2.75 µM
[3]
  GI50: 2.71 µM
  TGI: 15.3 µM
[4]
  GI50: 2.62 µM
  TGI: 10.5 µM
[5]
  GI50: 2.76 µM
  TGI: 37.3 µM
[6]
  GI50: 2.33 µM
  TGI: 11.7 µM
[7]
  GI50: 0.632 µM
  TGI: > 100 µM
[8]
  GI50: 2.38 µM
  TGI: 6.92 µM
[9]
  GI50: 2.19 µM
  TGI: 14.8 µM
[10]
  GI50: 3.6 µM
  TGI: 22.5 µM
[11]
  GI50: 2.66 µM
  TGI: 12.3 µM
[12]
  GI50: 1.43 µM
  TGI: 10.9 µM
[13]
  GI50: 0.674 µM
  TGI: 19.4 µM
[14]
  GI50: 1.37 µM
  TGI: 44.4 µM
[15]
  GI50: 2.8 µM
  TGI: 16.3 µM
[16]
  GI50: 1.37 µM
  TGI: 5.92 µM
[17]
  GI50: 1.85 µM
  TGI: 8.63 µM
[18]
  GI50: 2.96 µM
  TGI: 20.5 µM
[19]
  GI50: 1.41 µM
  TGI: 4.47 µM
[20]
  GI50: 2.16 µM
  TGI: > 100 µM
[21]
  GI50: 2.67 µM
  TGI: 12.6 µM
[22]
  GI50: 1.76 µM
  TGI: 3.46 µM
[23]
  GI50: 1.11 µM
  TGI: 6.9 µM
[24]
  GI50: 2.83 µM
  TGI: 21 µM
[25]
  GI50: 2.1 µM
  TGI: 13.6 µM
[26]
  GI50: 2.59 µM
  TGI: 12.4 µM
[27]
  GI50: 1.46 µM
  TGI: > 100 µM
[28]
  GI50: 2.45 µM
  TGI: 16.9 µM
[29]
  GI50: 2.18 µM
  TGI: 5.83 µM
[30]
  GI50: 2.08 µM
  TGI: 14.6 µM
[31]
  GI50: 1.07 µM
  TGI: 6.51 µM
[32]
  GI50: 0.738 µM
  TGI: > 100 µM
[33]
  GI50: 2.06 µM
  TGI: 18.2 µM
[34]
  GI50: 3.4 µM
  TGI: > 100 µM
[35]
  GI50: 2.38 µM
  TGI: 18.4 µM
[36]
  GI50: 1.4 µM
  TGI: > 100 µM
[37]
  GI50: 1.94 µM
  TGI: 22.8 µM
[38]
  GI50: 1.56 µM
  TGI: 12.3 µM
[39]
  GI50: 1.22 µM
  TGI: 3.2 µM
[40]
  GI50: 2.72 µM
  TGI: 22.9 µM
[41]
  GI50: 1.84 µM
  TGI: 3.8 µM
[42]
  GI50: 2.05 µM
  TGI: 10.3 µM
[43]
  GI50: 2.77 µM
  TGI: 8.66 µM
[44]
  GI50: 2.57 µM
  TGI: 11.5 µM
[45]
  GI50: 1.51 µM
  TGI: 3.41 µM
[46]
  GI50: 2.01 µM
  TGI: 10.8 µM
[47]
  GI50: 2.69 µM
  TGI: 17.4 µM
[48]
  GI50: 3.08 µM
  TGI: 16.8 µM
[49]
  GI50: 2.28 µM
  TGI: 16.6 µM
[50]
  GI50: 0.724 µM
  TGI: > 100 µM
[51]
  GI50: 2.18 µM
  TGI: 10.6 µM
[52]
  GI50: 1.85 µM
  TGI: 18.7 µM
[53]
  GI50: 1.91 µM
  TGI: 10.1 µM
[54]
  GI50: 2.16 µM
  TGI: 10 µM
[55]
  GI50: 1.42 µM
  TGI: 31.1 µM
[56]
  GI50: 1.61 µM
  TGI: 5.27 µM
[57]
  GI50: 0.5 µM
  TGI: 2.78 µM
